Results as given in the NIST ThermoML archive (doi:10.1016/j.fluid.2017.10.023).

Test: xn = mol fraction of the nth substance listed
Details: 313.15 K; for surface tension liquid-gas: Pendant drop shape; for mass density: Liquid, Vibrating tube method

CCCCC [pentane] + C
Details	mass density [kg/m3]	surface tension liquid-gas [mN/m]
x2 = 0.048	594.4	12
x2 = 0.101	581	10.13
x2 = 0.181	558.8	7.61
x2 = 0.263	533.1	5.37
x2 = 0.351	501.8	3.26
x2 = 0.43	466.3	1.68
x2 = 0.501	431.5	0.761
